The structures appear in SMILES notation.

A short description of this data set: Administration of methotrexate to a sheep via the CSF circuit; drug concentration measured with LC/MS in CSF, spinal cord and brain regions. Format: in vivo. Here is the method:
The inventors administered methotrexate to sheep using illustrative embodiments. An outline of the study is depicted by FIGS. 16A-16C. A sheep used for this experiment received the CSF circuit 10 of illustrative embodiments. Circulation was started at the same time that methotrexate was infused. Methotrexate was infused at a gradual rate of 2 mLs over 2 minutes and then recirculation from lumbar to ventricle was started at a rate of 0.2 mLs/min. Circulation continued after drug infusion was stopped for […]. At zero to three hours, the circulation rate was at 0.1 mL/min and from four to six hours, circulation was at 0.3 mL/min. The dose of methotrexate infused was 12 mg. Drug concentration was measured with LC/MS (liquid chromatography with the mass analysis capabilities of mass spectrometry) in the CSF, spinal cord, and multiple brain regions.
CSF levels of methotrexate were analyzed over time.
The x-axis of this graph is […].

In the case of `CN(Cc1cnc2nc(N)nc(N)c2n1)c1ccc(C(=O)N[C@@H](CCC(=O)O)C(=O)O)cc1` [methotrexate], the “CSF levels of methotrexate, lumbar region” value (12 mg infused 2 mLs over 2 minutes, lumbar region where drug was infused, lumbar to ventricle circulation, LC/MS) is recorded as “very high”. The “CSF levels of methotrexate over time, lumbar region” value (12 mg, lumbar CSF samples, time course, LC/MS) is “a decline over time was measured except for an increase at 5 hours and then a subsequent decline”. In addition, under “12 mg, samples from twelve brain regions homogenized, all areas of the brain and spinal cord”, the “methotrexate levels in brain and spinal cord tissue” value is given as “good levels”. In addition, where the note is “12 mg, ventricular CSF samples, initial time points, LC/MS”, the “CSF levels of methotrexate, ventricular samples, initially” value was “very low”. For the same compound, where the note is “12 mg, ventricular CSF samples, later time points, LC/MS”, the “CSF levels of methotrexate over time, ventricular samples” value is “increased at 4 and 5 hours, before declining to a similar level as the lumbar samples”.

For the origin of these results see US12329930B2, “Subarachnoid fluid management method and system” (EnClear Therapies, Inc., priority 2020, dated 2025).
